Experimental data as given in patent US20200291018A1, “TAM KINASE INHIBITORS” (SYROS PHARMACEUTICALS, INC., priority 2017, published 2020).

Columns and labels:
TYRO3 = target: T1, TYRO3 (Homo sapiens, UniProt Q06418); assay: TR-FRET kinase activity assay, TYRO3; format: biochemical; conditions: ATP at Km, 60 minutes
T1 sequence (Q06418 41-890): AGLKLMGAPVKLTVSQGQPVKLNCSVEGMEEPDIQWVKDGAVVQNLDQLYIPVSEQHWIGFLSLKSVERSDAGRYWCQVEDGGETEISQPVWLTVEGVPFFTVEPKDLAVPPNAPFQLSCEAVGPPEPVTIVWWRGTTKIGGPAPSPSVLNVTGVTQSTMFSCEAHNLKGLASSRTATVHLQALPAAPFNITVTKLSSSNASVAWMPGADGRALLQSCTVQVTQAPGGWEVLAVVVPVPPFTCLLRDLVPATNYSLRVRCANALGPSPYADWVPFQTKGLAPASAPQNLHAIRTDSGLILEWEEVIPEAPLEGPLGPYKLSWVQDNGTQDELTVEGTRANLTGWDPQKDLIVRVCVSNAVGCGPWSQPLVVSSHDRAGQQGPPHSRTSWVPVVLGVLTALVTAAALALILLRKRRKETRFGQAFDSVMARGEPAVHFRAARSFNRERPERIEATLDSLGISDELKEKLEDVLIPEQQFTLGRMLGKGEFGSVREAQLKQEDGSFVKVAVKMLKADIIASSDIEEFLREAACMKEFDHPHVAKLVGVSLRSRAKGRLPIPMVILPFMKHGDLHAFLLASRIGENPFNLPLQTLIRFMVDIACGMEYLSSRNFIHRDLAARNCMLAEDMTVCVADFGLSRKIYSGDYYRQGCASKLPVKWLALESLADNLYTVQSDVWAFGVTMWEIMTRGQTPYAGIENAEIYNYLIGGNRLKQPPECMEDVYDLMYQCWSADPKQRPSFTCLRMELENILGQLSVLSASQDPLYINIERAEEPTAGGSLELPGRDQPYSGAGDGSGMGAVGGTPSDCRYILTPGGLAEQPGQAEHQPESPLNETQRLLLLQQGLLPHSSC
Description: IC50 values for compound inhibition of AXL, FLT3, MERTK and TYRO3 activity were determined using a TR-FRET activity assay. A peptide substrate with a fluorescent label is phosphorylated on a tyrosine by each enzyme, where the now phosphorylated product is bound by a Europium-labeled antibody specific to that phosphorylation site. The proximity between the antibody and the substrate gives a signal known as TR-FRET. As the enzyme is inhibited by compound, less phosphorylated peptide product is made, causing a decrease in overall signal.
Activity assays were performed in a 384-well, small volume, black microplates in an active enzyme volume of 10 uL and final developed volume of 20 uL. Final assay conditions are 50 mM HEPES pH 7.5, 10 mM MgCl2, 1 mM EGTA, 0.01% Brij 35 and 1 mM DTT, all at RT. Enzyme, substrate-labeled peptide and compound are mixed, and then the reaction is initiated with the addition of ATP at Km concentration for each enzyme. The reaction is allowed to run 60 minutes and then quenched with a 12.5 mM EDTA (ethylenediamine tetraacetic acid) solution. The plate is then developed with the addition of Europium-labeled antibody for a final volume of 20 uL and is then incubated for 30 minutes in darkness. Plates are read in a PHERASTAR® plate reader. Data are analyzed in GraphPad PRISM.

FLT3 = target: T2, FLT3 (Homo sapiens, UniProt P36888); assay: TR-FRET kinase activity assay, FLT3; format: biochemical; conditions: ATP at Km, 60 minutes
T2 sequence (P36888 27-993): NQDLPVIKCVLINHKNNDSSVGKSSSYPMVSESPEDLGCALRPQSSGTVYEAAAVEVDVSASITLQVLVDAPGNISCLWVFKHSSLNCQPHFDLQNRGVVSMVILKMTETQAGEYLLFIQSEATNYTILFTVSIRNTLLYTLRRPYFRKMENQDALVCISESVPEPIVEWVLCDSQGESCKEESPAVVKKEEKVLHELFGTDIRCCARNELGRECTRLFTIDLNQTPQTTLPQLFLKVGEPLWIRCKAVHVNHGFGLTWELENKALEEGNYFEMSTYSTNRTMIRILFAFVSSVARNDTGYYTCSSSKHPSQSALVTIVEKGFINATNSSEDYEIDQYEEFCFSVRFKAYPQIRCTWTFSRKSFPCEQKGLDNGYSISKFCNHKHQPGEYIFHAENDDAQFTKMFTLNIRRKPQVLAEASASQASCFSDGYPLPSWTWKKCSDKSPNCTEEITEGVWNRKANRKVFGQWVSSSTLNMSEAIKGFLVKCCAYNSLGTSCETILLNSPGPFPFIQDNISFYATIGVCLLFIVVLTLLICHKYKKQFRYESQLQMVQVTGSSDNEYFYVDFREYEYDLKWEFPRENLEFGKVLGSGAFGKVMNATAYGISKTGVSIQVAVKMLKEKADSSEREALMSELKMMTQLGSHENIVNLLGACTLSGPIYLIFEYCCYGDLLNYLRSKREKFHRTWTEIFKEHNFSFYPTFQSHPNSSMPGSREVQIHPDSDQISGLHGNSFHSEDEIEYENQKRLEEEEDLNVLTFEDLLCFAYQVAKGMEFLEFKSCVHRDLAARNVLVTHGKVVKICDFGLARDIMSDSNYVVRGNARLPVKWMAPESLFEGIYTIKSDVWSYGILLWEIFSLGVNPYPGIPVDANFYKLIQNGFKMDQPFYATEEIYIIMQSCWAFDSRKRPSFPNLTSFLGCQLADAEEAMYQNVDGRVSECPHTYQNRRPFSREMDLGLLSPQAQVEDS
Summary of the method: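 Buffer 50 mM HEPES pH 7.5/10 mM MgCl2/1 mM EGTA/0.01% Brij 35/1 mM DTT, RT. Km ATP per kinase, labeled peptide, 60 min; 12.5 mM EDTA stop; Eu-Ab 30 min dark; TR-FRET → IC50.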

SMILES | IC50 (TYRO3) [µM] | IC50 (FLT3) [µM]
CC(C)Nc1ncc2c(OC3CCOCC3)ncc(-c3cccc(CC(=O)O)c3)c2n1 [Compound 276] | 0.1 to 1 | 1 to 10
O[C@H]1CC[C@H](c2cnc(OC3CCOCC3)c3cnc(N[C@H]4CCNC4)nc32)CC1 [Compound 277] | 1 to 10 | 1 to 10
